In general, IC50 refers to the concentration that gives 50% inhibition. Read a high IC50 as a need for much substance.

Entries after “also recorded” stand apart in the source; their conditions may differ.

What all share (assay type): cell-based
In experiment [1] the test system is pS6K1 (p-p70 S6 Kinase (Thr389)) in MCF-7 cells. Put plainly: AlphaLISA Ultra pS6K1 Assay. Particulars: Homo sapiens, 1.5 h; MCF7 cells, 90 min. The method in brief:
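AlphaLISA Ultra read-out (acceptor beads 2 h, then donor beads 2 h) on thawed lysates of MCF-7 cells. Cells had 20–24 h after seeding and a 2 h medium change, then 90 min of compound exposure at 0.5% final DMSO, with lysates stored at −80 °C.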

For experiment [2], the system named is 4E-BP1 phosphorylation in PC3 cells. Put plainly: Western blot, 4E-BP1 phosphorylation in PC3 cells. Particulars: 24 hours. (In general: In western blotting, separated proteins are transferred to a membrane and probed.)
In a further experiment the test system is mTORC1 over mTORC2. The experiment is described as follows: mTORC1 selectivity over mTORC2 at 24 hrs (Western blot based pS6K1 and pAKT assay). The conditions noted are these: 24 hrs.
Experiment [3] deals with mTORC1 pathway (pS6K1 T389) in PC3 cells. The experiment is described as follows: Western blot, mTORC1 pathway (pS6K1) in PC3 cells. The conditions noted are these: PC3 cells, 24 hours. The method in brief:
(§1)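 Triton lysates analysed by Western blot for pS6K1 and pAkt, detected with IRDye 800 anti-rabbit secondary on a Li-Cor imager.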

Experiment [4] relates to mTORC2 pathway (Akt phosphorylation) in PC3 cells. The experiment is described as follows: Western blot, mTORC2 pathway (pAkt) in PC3 cells. The conditions noted are these: 24 hours. The method in brief: as §1

`CO[C@@H]1C[C@H](C[C@@H](C)[C@@H]2CC(=O)[C@H](C)/C=C(\C)[C@@H](O)[C@@H](OC)C(=O)[C@H](C)C[C@H](C)/C=C/C=C/C=C(\C)C(OCP(=O)(CO)CO)C[C@@H]3CC[C@@H](C)[C@@](O)(O3)C(=O)C(=O)N3CCCC[C@H]3C(=O)O2)CC[C@H]1O` (stereo partly drawn) [I-106, (21E,23E,25E,26E,31R,32S,33R,34R,36S,38S,41S,42R,43R,52R)-40-[bis(hydroxymethyl)phosphorylmethoxy]-42,52-dihydroxy-4I-[(1R)-2-[(1S,3R,4R)-4-hydroxy-3-methoxy-cyclohexyl]-1-methyl-ethyl]-43-methoxy-31, 32,33,34,44,45-hexamethyl-65,66-dioxa-53-azatricyclohexatriaconta-21, 23,25(44),26(45)-tetraene-46,47,48,49,50-pentone] had an IC50 in experiment [1] of 0.1 to 1 nM. Also, the “inhibition of 4E-BP1 phosphorylation” value in experiment [2] was “no inhibition”. Moreover, the “mTORC1 selective @ 24 hrs” value with mTORC1 over mTORC2 was “YES”. Also, the “inhibition of the mTORC1 pathway” value in experiment [3] is reported as “strong inhibition”. The “inhibition of mTORC2 (Akt phosphorylation)” value (“inhibition of mTORC2” for short) in experiment [4] is recorded as “do not inhibit”.

`CO[C@@H]1C[C@H](C[C@@H](C)[C@@H]2CC(=O)[C@H](C)/C=C(\C)[C@@H](O)[C@@H](OC)C(=O)[C@H](C)C[C@H](C)/C=C/C=C/C=C(\C)C(OCCCCCO)C[C@@H]3CC[C@@H](C)[C@@](O)(O3)C(=O)C(=O)N3CCCC[C@H]3C(=O)O2)CC[C@H]1O` (stereo partly drawn) [I-113, (21E,23E,25E,26E,33R,34S,35R,36R,38S,40S,43S,44R,45R,54R)-44, 54-dihydroxy-43-[(1R)-2-[(1S,3R,4R)-4-hydroxy-3-methoxy-cyclohexyl]-1-methyl-ethyl]-42-(5-hydroxypentoxy)-45-methoxy-33, 34,35,36,46,47-hexamethyl-65,66-dioxa-55-azatricyclohexatriaconta-21, 23,25(46),26(47)-tetraene-48,49,50,51,52-pentone] registered an IC50 in experiment [1] of 0.1 to 1 nM. The “inhibition of 4E-BP1 phosphorylation” value in experiment [2] was “no inhibition”. In addition, in the experiment on mTORC1 over mTORC2, the “mTORC1 selective @ 24 hrs” value is on record as “YES”. For the same compound, the “inhibition of the mTORC1 pathway” value in experiment [3] is listed as “strong inhibition”. Moreover, in experiment [4], the “inhibition of mTORC2” value is “do not inhibit”.

`CO[C@@H]1C[C@H](C[C@@H](C)[C@@H]2CC(=O)[C@H](C)/C=C(\C)[C@@H](O)[C@@H](OC)C(=O)[C@H](C)C[C@H](C)/C=C/C=C/C=C(\C)C(OC[C@H]3CO[C@@H](CO)CO3)C[C@@H]3CC[C@@H](C)[C@@](O)(O3)C(=O)C(=O)N3CCCC[C@H]3C(=O)O2)CC[C@H]1O` (stereo partly drawn) [I-118, (23E,25E,27E,28E,32R,33S,34R,35R,36S,39S,41S,45R,46R,55R)-45, 55-dihydroxy-41-[(1R)-2-[(1S,2R,3R)-3-hydroxy-2-methoxy-cyclohexyl]-1-methyl-ethyl]-40-[[(25, 5S)-5-(hydroxymethyl)-1,4-dioxan-2-yl]methoxy]-46-methoxy-32,33,34,35,47,48-hexamethyl-68, 69-dioxa-56-azatricyclohexatriaconta-23,25,27(47),28(48)-tetraene-49,50,51,52,53-pentone] showed an IC50 in experiment [1] of 1 to 10 nM. In addition, in experiment [2], the “inhibition of 4E-BP1 phosphorylation” value is “no inhibition”. Further, in the experiment on mTORC1 over mTORC2, the “mTORC1 selective @ 24 hrs” value was “YES”. Further, in experiment [3], the “inhibition of the mTORC1 pathway” value is listed as “moderate concentration dependent inhibition; also recorded: strong inhibition”. In experiment [4], the “inhibition of mTORC2” value is given as “do not inhibit”.

(Values after patent publication US11944605B2, “Rapamycin analogs and uses thereof” (Janssen Pharmaceutica NV, priority 2018, dated 2024).)
